# pIC50: −log10 of the molar value. Where a name gives a salt, the structure may show the parent alone.
# Biological target: T1, human B1 (Homo sapiens, UniProt P46663)
# T1 construct: host or cells: CHO-K1
# T1 sequence (P46663 1-353): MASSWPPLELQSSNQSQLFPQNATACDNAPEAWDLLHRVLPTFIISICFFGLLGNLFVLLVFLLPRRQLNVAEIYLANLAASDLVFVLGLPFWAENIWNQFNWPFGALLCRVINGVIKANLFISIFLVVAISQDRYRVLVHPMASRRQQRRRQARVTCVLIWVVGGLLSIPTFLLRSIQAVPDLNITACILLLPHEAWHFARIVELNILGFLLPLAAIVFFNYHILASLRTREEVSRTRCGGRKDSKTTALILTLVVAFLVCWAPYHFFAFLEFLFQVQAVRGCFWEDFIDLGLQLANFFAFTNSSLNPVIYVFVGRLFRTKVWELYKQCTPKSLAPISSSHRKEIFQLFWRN
# Test: Calcium flux assay for Bradykinin B1 antagonist, CHO-K1 cell line expressing human B1
# Type: cell-based
# Details: CHO-K1 cells expressing human B1, agonist Lys-(Des-Arg)-Bradykinin, read-out: Potency (IC50 value against human B1)
# Outline: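 CHO-K1 cells expressing human B1, loaded with 5 μM Fluo-4AM (2 h, 37° C) in HEPES buffer pH 7.4 with probenecid and 0.1% BSA, were preincubated 30 min at 25° C with compound (8 concentrations, triplicate, 1% DMSO) before B1 agonist addition. Ca2+ fluorescence monitored at 538 nm; background-normalized integrated values plotted against log antagonist concentration.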
row,Compound,pIC50
1,"COc1cc(C)c(S(=O)(=O)N(C)Cc2nnc(C(=O)N3CCN(CC4CCN(CC(C)(C)O)CC4)CC3)o2)c(C)c1 [Ex 266, N-({5-[(4-{[1-(2-Hydroxy-2-methylpropyl)piperidin-4-yl]methyl}piperazin-1-yl)carbonyl]-1,3,4-oxadiazol-2-yl}methyl)-4-methoxy-N,2,6-trimethylbenzenesulfonamide]",6.00 to 7.00
2,"COc1cc(C)c(S(=O)(=O)N(C)Cc2nnc(C(=O)N(C)CCc3ccc(C4=NCCN4)cc3)o2)c(C)c1 [Ex 267, N-{2-[4-(4,5-Dihydro-1H-imidazol-2-yl)phenyl]ethyl}-5-({[(4-methoxy-2,6-dimethylphenyl)sulfonyl](methyl)amino}methyl)-N-methyl-1,3,4-oxadiazole-2-carboxamide]",> 8.00
3,"COc1cc(C)c(S(=O)(=O)N(C)Cc2nnc(C(=O)N(C)Cc3ccc(CN4CCCC4)cc3)o2)c(C)c1 [Ex 268, 5-({[(4-Methoxy-2,6-dimethylphenyl)sulfonyl](methyl)amino}methyl)-N-methyl-N-[4-(pyrrolidin-1-ylmethyl)benzyl]-1,3,4-oxadiazole-2-carboxamide trifluoroacetate]",7.00 to 8.00
4,"COc1cc(C)c(S(=O)(=O)N(C)Cc2nnc(C(=O)NCCc3ccc(C4=NCCN4)cc3)o2)c(C)c1 [Ex 269, N-{2-[4-(4,5-Dihydro-1H-imidazol-2-yl)phenyl]ethyl}-5-({[(4-methoxy-2,6-dimethylphenyl)sulfonyl](methyl)amino}methyl)-1,3,4-oxadiazole-2-carboxamide trifluoroacetate]",> 8.00
5,"COc1cc(C)c(S(=O)(=O)N(C)Cc2nnc(C(=O)N3CCN(C4CCN(C)CC4)CC3)o2)c(C)c1 [Ex 270, 4-Methoxy-N,2,6-trimethyl-N-[(5-{[4-(1-methylpiperidin-4-yl)piperazin-1-yl]carbonyl}-1,3,4-oxadiazol-2-yl)methyl]benzenesulfonamide trifluoroacetamide]",6.00 to 7.00
6,"COc1cc(C)c(S(=O)(=O)N(Cc2nnc(C(=O)N3CCN(C4CCN(C)CC4)CC3)o2)C2CC2)c(C)c1 [Ex 271, N-Cyclopropyl-4-methoxy-2,6-dimethyl-N-[(5-{[4-(1-methylpiperidin-4-yl)piperazin-1-yl]carbonyl}-1,3,4-oxadiazol-2-yl)methyl]benzenesulfonamide]",7.00 to 8.00
7,"COc1cc(C)c(S(=O)(=O)N(Cc2nnc(C(=O)N3CCN(CC4CCN(C)CC4)CC3)o2)C2CC2)c(C)c1 [Ex 272, N-Cyclopropyl-4-methoxy-2,6-dimethyl-N-{[5-({4-[(1-methylpiperidin-4-yl)methyl]piperazin-1-yl}carbonyl)-1,3,4-oxadiazol-2-yl]methyl}benzenesulfonamide]",> 8.00
8,"COc1cc(C)c(S(=O)(=O)N(Cc2nnc(C(=O)N3CCN(CCCN4CCCC4)CC3)o2)C2CC2)c(C)c1 [Ex 273, N-Cyclopropyl-4-methoxy-2,6-dimethyl-N-[(5-{[4-(3-pyrrolidin-1-ylpropyl)piperazin-1-yl]carbonyl}-1,3,4-oxadiazol-2-yl)methyl]benzenesulfonamide]",> 8.00
9,"COc1cc(C)c(S(=O)(=O)N(Cc2nnc(C(=O)N3CCC(CCN4CCCC4)CC3)o2)C2CC2)c(C)c1 [Ex 274, N-Cyclopropyl-4-methoxy-2,6-dimethyl-N-[(5-{[4-(2-pyrrolidin-1-ylethyl)piperidin-1-yl]carbonyl}-1,3,4-oxadiazol-2-yl)methyl]benzenesulfonamide]",> 8.00
10,"COc1cc(C)c(S(=O)(=O)N(Cc2nnc(C(=O)N3CCN(CC4CCCN(C)C4)CC3)o2)C2CC2)c(C)c1 (centres unmarked) [Ex 275, N-Cyclopropyl-4-methoxy-2,6-dimethyl-N-{[5-({4-[(1-methylpiperidin-3-yl)methyl]piperazin-1-yl}carbonyl)-1,3,4-oxadiazol-2-yl]methyl}benzenesulfonamide]",7.00 to 8.00
11,"COc1cc(C)c(S(=O)(=O)N(Cc2nnc(C(=O)N3CCN(CCCN(C)C)CC3)o2)C2CC2)c(C)c1 [Ex 276, N-Cyclopropyl-N-{[5-({4-[3-(dimethylamino)propyl]piperazin-1-yl}carbonyl)-1,3,4-oxadiazol-2-yl]methyl}-4-methoxy-2,6-dimethylbenzenesulfonamide]",7.00 to 8.00
12,"COc1cc(C)c(S(=O)(=O)N(Cc2nnc(C(=O)N3CCN(CCN4CCCC4)CC3)o2)C2CC2)c(C)c1 [Ex 277, N-Cyclopropyl-4-methoxy-2,6-dimethyl-N-[(5-{[4-(2-pyrrolidin-1-ylethyl)piperazin-1-yl]carbonyl}-1,3,4-oxadiazol-2-yl)methyl]benzenesulfonamide]",7.00 to 8.00
13,"COc1cc(C)c(S(=O)(=O)N(C)Cc2nnc(C(=O)N3CCN(CC4CCCN(C)C4)CC3)o2)c(C)c1 (centres unmarked) [Ex 278, 4-Methoxy-N,2,6-trimethyl-N-{[5-({4-[(1-methylpiperidin-3-yl)methyl]piperazin-1-yl}carbonyl)-1,3,4-oxadiazol-2-yl]methyl}benzenesulfonamide]",6.00 to 7.00
14,"COc1cc(C)c(S(=O)(=O)N(C)Cc2nnc(C(=O)N3CCN(CCCN(C)C)CC3)o2)c(C)c1 [Ex 279, N-{[5-({4-[3-(Dimethylamino)propyl]piperazin-1-yl}carbonyl)-1,3,4-oxadiazol-2-yl]methyl}-4-methoxy-N,2,6-trimethylbenzenesulfonamide]",7.00 to 8.00
15,"COc1cc(C)c(S(=O)(=O)N(C)Cc2nnc(C(=O)N3CCC(CCN4CCCC4)CC3)o2)c(C)c1 [Ex 280, 4-Methoxy-N,2,6-trimethyl-N-[(5-{[4-(2-pyrrolidin-1-ylethyl)piperidin-1-yl]carbonyl}-1,3,4-oxadiazol-2-yl)methyl]benzenesulfonamide]",7.00 to 8.00
16,"COc1cc(C)c(S(=O)(=O)N(Cc2nnc(C(=O)N(C)Cc3ccc(CN4CCCC4)cc3)o2)C2CC2)c(C)c1 [Ex 281, 5-({Cyclopropyl[(4-methoxy-2,6-dimethylphenyl)sulfonyl]amino}methyl)-N-methyl-N-[4-(pyrrolidin-1-ylmethyl)benzyl]-1,3,4-oxadiazole-2-carboxamide]",> 8.00
17,"COc1cc(C)c(S(=O)(=O)N(C)Cc2nnc(C(=O)N(C)Cc3ccc(CN4CCC(OC)C4)cc3)o2)c(C)c1 (centres unmarked) [Ex 282, 5-({[(4-Methoxy-2,6-dimethylphenyl)sulfonyl](methyl)amino}methyl)-N-{4-[(3-methoxypyrrolidin-1-yl)methyl]benzyl}-N-methyl-1,3,4-oxadiazole-2-carboxamide]",6.00 to 7.00
18,"COc1cc(C)c(S(=O)(=O)N(C)Cc2nnc(C(=O)N(C)Cc3ccc(CN4CCC(OC)CC4)cc3)o2)c(C)c1 [Ex 283, 5-({[(4-Methoxy-2,6-dimethylphenyl)sulfonyl](methyl)amino}methyl)-N-{4-[(4-methoxypiperidin-1-yl)methyl]benzyl}-N-methyl-1,3,4-oxadiazole-2-carboxamide]",7.00 to 8.00
19,"COc1cc(C)c(S(=O)(=O)N(C)Cc2nnc(C(=O)N(C)Cc3ccc(CN4CCCC(OC)C4)cc3)o2)c(C)c1 (centres unmarked) [Ex 284, 5-({[(4-Methoxy-2,6-dimethylphenyl)sulfonyl](methyl)amino}methyl)-N-{4-[(3-methoxypiperidin-1-yl)methyl]benzyl}-N-methyl-1,3,4-oxadiazole-2-carboxamide]",6.00 to 7.00
20,"COc1cc(C)c(S(=O)(=O)N(C)Cc2nnc(C(=O)N(C)Cc3ccc(CN4CCC(N(C)C)C4)cc3)o2)c(C)c1 (centres unmarked) [Ex 285, N-(4-{[3-(Dimethylamino)pyrrolidin-1-yl]methyl}benzyl)-5-({[(4-methoxy-2,6-dimethylphenyl)sulfonyl](methyl)amino}methyl)-N-methyl-1,3,4-oxadiazole-2-carboxamide]",6.00 to 7.00
